Data set [1] concerns Phytophthora infestans. It is filed as in vivo. The note with it: tomato plants, spray, 500 ppm, grading 5 days after contamination.
For data set [2], the system named is Puccinia recondita. Put plainly: In vivo test on Puccinia recondita (brown rust). The note with it: wheat plants, spray, 500 ppm, grading 10 days after contamination. On the procedure: (§1) The active ingredients tested are prepared by homogenization in a mixture of acetone/tween/DMSO, then diluted with water to obtain the desired active material.
Wheat plants (Scipion variety) sown on 50/50 peat soil-pozzolana substrate in starter cups and grown at 22° C. (12 h)/20° C. (12 h), are treated at the 1-leaf stage (10 cm tall) by spraying with the aqueous suspension described above.
Plants, used as controls, are treated with an aqueous solution not containing the active material. After 24 hours, the plants are contaminated by spraying the leaves with an aqueous suspension of Puccinia recondite spores (100.000 spores per ml). The spores are collected from a 10-day-old contaminated wheat and are suspended in water containing 2.5 ml/l of tween 80 10%. The contaminated wheat plants are incubated for 24 hours at 20° C. and at 100% relative humidity, and then for 10 days at 20° C. and at 70% relative humidity. Grading is carried out 10 days after the contamination, in comparison with the control plants.
(§2) Under these conditions, good (at least 70%) or total protection is observed at a dose of 500 ppm with the following compounds: […]

For data set [3], the system named is Mycosphaerella graminicola. As to the kind of experiment: In vivo test on Mycosphaerella graminicola (wheat leaf spot). The note with it: wheat plants, spray, 500 ppm, grading 21 to 28 days after contamination. On the procedure: The active ingredients tested are prepared by homogenization in a mixture of acetone/tween/DMSO, then diluted with water to obtain the desired active material concentration.
Wheat plants (Scipion variety), sown on a 50/50 peat soil-pozzolana substrate in starter cups and grown at 22° C. (12 h)/20° C. (12 h), are treated at the 1-leaf stage (10 cm tall) by spraying with the aqueous suspension described above. Plants, used as controls, are treated with an aqueous solution not containing the active material.
After 24 hours, the plants are contaminated by spraying them with an aqueous suspension of cryopreserved Mycosphaerella graminicola spores (500.000 spores per ml). The contaminated wheat plants are incubated for 72 hours at 18° C. and at 100% relative humidity, and then for 21 to 28 days at 90% relative humidity.
Grading (% of efficacy) is carried out 21 to 28 days after the contamination, in comparison with the control plants.
as §2

Data set [4] is described as follows: Measurement of log P values by HPLC on reversed phase columns (EEC directive 79/831 Annex V.A8). The following applies: pH 2.7.
Data set [5] concerns Uromyces appendiculatus. Put plainly: In vivo test on Uromyces appendiculatus (brown rust of bean). The note with it: Saxa variety plants, spray, 500 ppm, grading 10 days after contamination. On the procedure: as §1
Wheat plants (Saxa variety) sown on 50/50 peat soil-pozzolana substrate in starter cups and grown at 24° C., are treated at the 2-leaf stage (9 cm tall) by spraying with the aqueous suspension described above.
(§3) Plants, used as controls, are treated with an aqueous solution not containing the active material.
After 24 hours, the plants are contaminated by spraying the leaves with an aqueous suspension of Uromyces appendiculatus spores (150.000 spores per ml). The spores are collected from a 10-day-old contaminated […] and are suspended in water containing 2.5 ml/l of tween 80 10%. The contaminated […] are incubated for 24 hours at 20° C. and at 100% relative humidity, and then for 10 days at 20° C. and at 70% relative humidity. Grading is carried out 10 days after the contamination, in comparison with the control plants.
as §2

For data set [6] the following is noted: pH 2.7.
For data set [7], the system named is Pyrenophora teres. Put plainly: In vivo test on Pyrenophora teres (barley net blotch). The following applies: barley plants, spray, 500 ppm, grading 12 days after contamination. On the procedure:
The active ingredients tested are prepared by homogenization in a mixture of acetone/Tween/DMSO, then diluted with water to obtain the desired active material concentration.
Barley plants (Plaisant variety), sown on a 50/50 peat soil-pozzolana substrate in starter cups and grown at 22° C. (12 h)/20° C. (12 h), are treated at the 1-leaf stage (10 cm tall) by spraying with the active ingredient prepared as described above.
as §3
After 24 hours, the plants are contaminated by spraying them with an aqueous suspension of Pyrenophora teres spores (12.000 spores per ml). The spores are collected from a 12-day-old culture.
The contaminated barley plants are incubated for 24 hours at about 20° C. and at 100% relative humidity, and then for 12 days at 80% relative humidity.
Grading is carried out 12 days after the contamination, in comparison with the control plants.
Under these conditions, good (at least 70%) is observed at a dose of 500 ppm with the following compounds: […]

Data set [8] relates to Plasmopara viticola. As to the kind of experiment: Plasmopara test (grapevines)/preventive. It counts as in vivo. The note with it: preventive spray, 10 ppm of active ingredient, evaluated 6 days after inoculation. The gist of the method:
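Young grapevines sprayed preventively with compound formulated in acetone/dimethylacetamide with emulsifier, diluted in water, then inoculated with P. viticola spores after drying. Held 1 day at ~20 °C/100% RH, 4 days in greenhouse at ~21 °C/~90% RH, then misted for 1 day. Efficacy scored 6 days post-inoculation (0% = untreated control, 100% = no disease).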

Marks after values point to notes of the source that are not given here.

Usually chromatographic logP stands for a lipophilicity value derived from retention on a column. As to `CC(Nc1cccc(CO/N=C(/c2ccccc2)c2noc(=O)n2C)n1)c1ccccc1` (stereo not shown) [Example 43, 4-methyl-3-{(Z)-phenyl[({6-[(1-phenylethyl)amino]pyridin-2-yl}methoxy)imino]methyl}-1,2,4-oxadiazol-5(4H)-one], the Eff. % in data set [1] was determined as 100%; in data set [2], 94%; in data set [3], 91%; in data set [5], 75%. In addition, in data set [4], the chromatographic logP came out at 2.86.
A word on the LogP: it is a log measure of how a compound divides between an organic and an aqueous phase. Higher therefore signals a more lipophilic compound. As to `CCCCCCOC(=O)Nc1nc(CO/N=C(/c2ccccc2)c2noc(=O)n2C)cs1` [Example 53], the Eff. % in data set [1] came out at 73%; in data set [7], 70%. Besides, in data set [6], the LogP is 4.51 [a].
For the molecule `CCC(=O)Nc1cccc(CO/N=C(/c2ccccc2)c2noc(=O)n2C)n1` [Example 71], the Eff. % in data set [1] is given as 99%; in data set [3], 88%; in data set [7], 70%. Besides, the LogP in data set [6] is 2.77 [a].
For `Cn1c(/C(=N\OCc2cccc(NC(=O)CCC3CCCC3)n2)c2ccccc2)noc1=O` [Example 84], the values for the Eff. % in data set [1] and in data set [7] were 100% and 70%, respectively. In addition, the LogP in data set [6] was 4.36 [a].
Regarding `Cc1cccc(/C(=N/OCc2cccc(NC(=O)OCc3ccccc3)n2)c2noc(=O)n2C)c1` [Example 117], the values for the Eff. % in data set [3] and in data set [7] were 90% and 79%, respectively. Besides, the LogP in data set [6] is 4.31 [a].
In the case of `CCCCC(=O)Nc1cccc(CO/N=C(/c2cccc(F)c2)c2noc(=O)n2C)n1` [Example 140], the Eff. % in data set [1] worked out at 100%; in data set [2], 86%; in data set [8], 85%; in data set [5], 73%. The LogP in data set [6] is 3.61 [a].
For the molecule `C#CCCOC(=O)Nc1cccc(CO/N=C(/c2cccc(OC)c2)c2noc(=O)n2C)n1` [Example 228], the Eff. % in data set [1] is reported as 100%; in data set [2], 81%; in data set [8], 93%; in data set [5], 70%. Moreover, in data set [6], the LogP was 3.33 [a].
For `Cc1cccc(C(=NOCc2cccc(NC(=O)OC3CCCCC3)n2)c2noc(=O)n2C)c1` [Example 250], the Eff. % in data set [1] was determined as 80%; in data set [3] it was 96%; in data set [7], 79%. The LogP in data set [6] is 4.82 [a].
In the same order, the values of `Cn1c(C(=NOCc2cccc(NC(=O)Cc3cc(F)ccc3F)n2)c2ccccc2)noc1=O` [Example 255] are 98%, 88%, 70% and 3.62 [a].
In the case of `C=CCCC(=O)Nc1cccc(CON=C(c2ccccc2)c2noc(=O)n2C)n1` [Example 256], the Eff. % in data set [1] is given as 100%; in data set [7], 90%. For the same molecule, in data set [6], the LogP was 3.25 [a].
In the same order, the values of `CC(C)C=CCCCCC(=O)Nc1cccc(CON=C(c2ccccc2)c2noc(=O)n2C)n1` [Example 268] are 100%, 96% and 5.06 [a].
With `CCn1c(C(=NOCc2cccc(NC(=O)CC(C)C)n2)c2ccccc2)noc1=O` [Example 280], the Eff. % in data set [1] was found to be 100%; in data set [2], 98%; in data set [5] it was 83%. Also, the LogP in data set [6] was 3.7 [a].
Take `COCC(=O)Nc1cccc(CO/N=C(/c2ccccc2)c2noc(=O)n2C)n1` [Example 379]: the Eff. % in data set [1] and in data set [7] was 100% each time. In data set [6], the LogP was 2.73 [a].
As for `CCCCCOC(=O)Nc1cccc(CO/N=C(/c2cccc(F)c2)c2noc(=O)n2C)n1` [Example 406], the Eff. % in data set [1] was determined as 94%; in data set [2], 81%; in data set [3], 79%; in data set [8] it was 79%; in data set [5], 79%. The LogP in data set [6] was 4.53 [a].

The record behind these values is patent US9090600B2, “Fungicidal 4-substituted-3-{phenyl[(heterocyclylmethoxy)imino]methyl}-1,2,4-oxadizol-5(4H)-one derivatives” (BAYER INTELLECTUAL PROPERTY GMBH, priority 2011, dated 2015).
